Legend:
[1] = tested on: MKN-1; test: Growth inhibitory concentration of compound was measured against human gastric adenocarcinoma cell line (MKN-1); type: functional, cell-based
[2] = tested on: K562; test: Growth inhibitory concentration of compound was measured against human leukemia cell line (K562); type: functional, cell-based
[3] = tested on: P388; test: Growth inhibitory concentration of compound was measured against murine leukemia cell line (P388); type: functional, cell-based; settings: Mus musculus
[4] = tested on: PC-14; test: Growth inhibitory concentration of compound was measured against human lung carcinoma cell line (PC-14); type: functional, cell-based
[5] = tested on: L1210; test: Growth inhibitory concentration of compound was measured against murine leukemia cell line (L1210); type: functional, cell-based; settings: Mus musculus
[6] = tested on: P388; test: Growth inhibitory concentration of compound was measured against DOX resistant P388 cell line (P388 /DOX); type: functional, cell-based; settings: Mus musculus
[7] = tested on: Melanoma cell line; test: Growth inhibitory concentration of compound was measured against human melanoma cell line (HMV-1); type: functional, cell-based
[8] = tested on: KB; test: Growth inhibitory concentration of compound was measured against human nasopharyngeal carcinoma cell line (KB); type: functional, cell-based
[9] = tested on: T-24; test: Growth inhibitory concentration of compound was measured against human bladder carcinoma cell line (T24); type: functional, cell-based
[10] = biological target: DNA topoisomerase II (Homo sapiens, UniProt P11388+Q02880); test: The compound was tested for its inhibitory activity against topoisomerase II; type: protein assay

| IC50 [1] | IC50 [2] | IC50 [3] | IC50 [5] | IC50 [6] | IC50 [7] | IC50 [8] | IC50 [10] | SMILES | IC50 [4] | IC50 [9] |
| --- | --- | --- | --- | --- | --- | --- | --- | --- | --- | --- |
| > 8.5 µM | 5.8 µM | > 8.5 µM | > 8.5 µM | > 8.5 µM | 7.5 µM | > 8.5 µM |  | CC1OC(Oc2c3c(c4cccnc4c2OC2OC(C)C(O)C(O)C2F)C(=O)c2ccccc2C3=O)C(F)C(O)C1O (configuration not stated) | > 8.5 µM | > 8.5 µM |
| 0.73 µM | 0.71 µM | 0.77 µM | 0.32 µM | 0.82 µM | 0.59 µM | 0.27 µM | 5 µM | CC1OC(Oc2c(O)c3c(c4cccnc24)C(=O)c2ccccc2C3=O)C(F)C(O)C1O (configuration not stated) | 0.71 µM | 0.36 µM |
| 14 µM | 7.2 µM | 6.9 µM | 7.2 µM | 3.3 µM | 4.1 µM | 3 µM |  | O=C1c2ccccc2C(=O)c2c1c(O)c(O)c1ncccc21 | > 17 µM | 14 µM |

| SMILES | IC50 [1] | IC50 [2] | IC50 [3] | IC50 [5] | IC50 [6] | IC50 [7] | IC50 [8] | IC50 [10] | IC50 [4] | IC50 [9] |
| --- | --- | --- | --- | --- | --- | --- | --- | --- | --- | --- |
| COc1cccc2c1C(=O)c1c(O)c3c(c(O)c1C2=O)C[C@@](O)(C(=O)CO)C[C@@H]3O[C@H]1C[C@H](N)[C@H](O)[C@H](C)O1 [DOXORUBICIN] | 0.64 µM | 0.12 µM | 0.02 µM | 0.05 µM | > 0.9 µM | 0.28 µM | 0.22 µM |  | 1.9 µM | 0.64 µM |

From ChEMBL document CHEMBL1133368, “Preparation of 5-(2,6-dideoxy-2-fluoro-alpha-L-talopyranosyloxy)-6-hydroxynap htho[2,3- f]quinoline-7,12-dione (FT-Alz), a new-type, potentially antitumor substance with various biological activities” (Bioorg Med Chem Lett, 2000)
